# Results: PMC12366332 (Applied and Environmental Microbiology, 2025)
# Where two headings read alike, the source gives them in different places. Ends that are not written are not given here. Peptide text beside a SMILES is read from it. * marks the point of attachment. Hexanoyl = CCCCCC(=O)*
# Key:
# [1] = system: X. fastidiosa subsp. fastidiosa IVIA 5387.2; conditions: for EC50: 3 h
# horse erythrocytes = conditions: red cells of horse, 50 µM
# tobacco leaves = conditions: 150 µM; after 48 h
# E. coli 0111:B4 LPS = assay type: biochemical, Escherichia coli
Compound,Bactericidal activity Reduction in viability (Log N0/N) ([1]; 50 µM),Phytotoxicity: diameter of the lesion (tobacco leaves) [mm],Bactericidal activity Level ([1]; 50 µM),LPS neutralization Ratio (treatment/NTC) (E. coli 0111:B4 LPS),also measured
"CCCCCC(=O)NCCCC[C@H](NC(=O)[C@@H](NC(=O)[C@H](CCCCN)NC(=O)[C@H](CCCCN)NC(=O)[C@H](Cc1ccccc1)NC(=O)[C@H](CC(C)C)NC(=O)[C@H](CCCCN)NC(=O)[C@H](CCCCN)NC(C)=O)[C@@H](C)CC)C(=O)N[C@@H](CCCCN)C(=O)N[C@@H](Cc1ccc(O)cc1)C(=O)N[C@@H](CC(C)C)C(N)=O [BP375, Ac-KKLFKKIK(COC5H11)KYL-NH2] (Ac-KKLFKKIK(Hexanoyl)KYL-NH2)","1,37 Log N0/N",10,–,–,Hemolytic activity (%) (horse erythrocytes): 23%
"CCCCCC(=O)NCCCC[C@H](NC(=O)[C@H](CCCCN)NC(=O)[C@H](CC(C)C)NC(=O)[C@@H](NC(=O)[C@H](CCCCN)NC(=O)[C@H](CCCCN)NC(=O)[C@H](Cc1ccccc1)NC(=O)[C@H](CC(C)C)NC(=O)[C@H](CCCCN)NC(=O)[C@H](CCCCN)NC(C)=O)[C@@H](C)CC)C(=O)N[C@@H](CC(C)C)C(N)=O [BP377, Ac-KKLFKKILKK(COC5H11)L-NH2] (Ac-KKLFKKILKK(Hexanoyl)L-NH2)",–,11,Very High (key: Very High: very high bactericidal activity (>2.5 log); High: high bactericidal activity (between 2.0 and 2.5 log); Moderate: a moderate activity (between 1.5 and 2.0 log); Low: low active (<1.5 log)),–,"Bactericidal activity Reduction in viability (Log N0/N) ([1]; 3.1 µM): 1,34 Log N0/N; Bactericidal activity Reduction in viability (Log N0/N) ([1]; 12.5 µM): 1,88 Log N0/N; EC50 [1]: 3.67 µM; Hemolytic activity (%) (horse erythrocytes): 71%"
"CCCC(=O)NCCCC[C@H](NC(=O)[C@@H](NC(=O)[C@H](CCCCN)NC(=O)[C@H](CCCCN)NC(=O)[C@H](Cc1ccccc1)NC(=O)[C@H](CC(C)C)NC(=O)[C@H](CCCCN)NC(=O)[C@H](CCCCN)NC(C)=O)[C@@H](C)CC)C(=O)N[C@@H](CCCCN)C(=O)N[C@@H](Cc1ccc(O)cc1)C(=O)N[C@@H](CC(C)C)C(N)=O [BP387, Ac‐KKLFKKIK(COC3H7)KYL‐NH2]","1,96 Log N0/N",8,Moderate (key: Very High: very high bactericidal activity (>2.5 log); High: high bactericidal activity (between 2.0 and 2.5 log); Moderate: a moderate activity (between 1.5 and 2.0 log); Low: low active (<1.5 log)),–,"Bactericidal activity Reduction in viability (Log N0/N) ([1]; 12.5 µM): 0,83 Log N0/N; Hemolytic activity (%) (horse erythrocytes): 4%"
"CCCC(=O)NCCCC[C@H](NC(=O)[C@H](CCCCN)NC(=O)[C@H](CC(C)C)NC(=O)[C@@H](NC(=O)[C@H](CCCCN)NC(=O)[C@H](CCCCN)NC(=O)[C@H](Cc1ccccc1)NC(=O)[C@H](CC(C)C)NC(=O)[C@H](CCCCN)NC(=O)[C@H](CCCCN)NC(C)=O)[C@@H](C)CC)C(=O)N[C@@H](CC(C)C)C(N)=O [BP389, Ac-KKLFKKILKK(COC3H7)L-NH2]",–,7,High (key: Very High: very high bactericidal activity (>2.5 log); High: high bactericidal activity (between 2.0 and 2.5 log); Moderate: a moderate activity (between 1.5 and 2.0 log); Low: low active (<1.5 log)),–,"Bactericidal activity Reduction in viability (Log N0/N) ([1]; 3.1 µM): 0,02 Log N0/N; Bactericidal activity Reduction in viability (Log N0/N) ([1]; 12.5 µM): 1,51 Log N0/N; Hemolytic activity (%) (horse erythrocytes): 9%"
"CCCCCCCCCCCC(=O)NCCCC[C@H](NC(=O)[C@H](CCCCN)NC(C)=O)C(=O)N[C@@H](CC(C)C)C(=O)N[C@@H](Cc1ccccc1)C(=O)N[C@@H](CCCCN)C(=O)N[C@@H](CCCCN)C(=O)N[C@H](C(=O)N[C@@H](CC(C)C)C(=O)N[C@@H](CCCCN)C(=O)N[C@@H](Cc1ccc(O)cc1)C(=O)N[C@@H](CC(C)C)C(N)=O)[C@@H](C)CC [BP393, Ac-KK(COC11H23)LFKKILKYL-NH2]",–,6,High (key: Very High: very high bactericidal activity (>2.5 log); High: high bactericidal activity (between 2.0 and 2.5 log); Moderate: a moderate activity (between 1.5 and 2.0 log); Low: low active (<1.5 log)),–,EC50 [1]: 20.1 µM
"CC[C@H](C)[C@H](NC(=O)CN)C(=O)NCC(=O)N[C@@H](C)C(=O)N[C@H](C(=O)N[C@@H](CC(C)C)C(=O)N[C@@H](CCCCN)C(=O)N[C@H](C(=O)N[C@@H](CC(C)C)C(=O)N[C@H](C(=O)N[C@H](C(=O)NCC(=O)N[C@@H](CC(C)C)C(=O)N1CCC[C@H]1C(=O)N[C@@H](C)C(=O)N[C@@H](CC(C)C)C(=O)N[C@H](C(=O)N[C@@H](CO)C(=O)N[C@@H](Cc1c[nH]c2ccccc12)C(=O)N[C@H](C(=O)N[C@@H](CCCCN)C(=O)N[C@@H](CCCNC(=N)N)C(=O)N[C@@H](CCCCN)C(=O)N[C@@H](CCCNC(=N)N)C(=O)N[C@@H](CCC(N)=O)C(=O)N[C@@H](CCC(N)=O)C(N)=O)[C@@H](C)CC)[C@@H](C)CC)[C@@H](C)O)[C@@H](C)O)C(C)C)C(C)C [Melittin, reference compound]",–,10,–,–,–
Ac-LKLFKKILKVL-NH2 [BP022],"1,87 Log N0/N",–,Moderate (key: Very High: very high bactericidal activity (>2.5 log); High: high bactericidal activity (between 2.0 and 2.5 log); Moderate: a moderate activity (between 1.5 and 2.0 log); Low: low active (<1.5 log)),"0,61",–
CF-KKLfKK(COC3H7)ILKYL-NH2 [BP473-CF],–,–,–,–,"Bactericidal activity Reduction in viability (Log N0/N) [1]: 0,91 Log N0/N"
FKLFKKILKVL-NH2 [BP013],"1,03 Log N0/N",–,–,"1,13",–
KKLFKKILKFL-NH2 [BP076],"0,91 Log N0/N",–,–,"0,36",–
KKLFKKILKKL-NH2 [BP016],"0,00 Log N0/N",–,–,"1,13",–
KKLFKKILKVL-NH2 [BP015],"1,13 Log N0/N",–,–,"1,10",–
KKLFKKILKYL-NH2 [BP100],"1,92 Log N0/N",–,Moderate (key: Very High: very high bactericidal activity (>2.5 log); High: high bactericidal activity (between 2.0 and 2.5 log); Moderate: a moderate activity (between 1.5 and 2.0 log); Low: low active (<1.5 log)),"0,34",–
KKLFKkILKYL-NH2 [BP146],"1,25 Log N0/N",–,–,"0,73",–
KKLfKKILKYL-NH2 [BP143],"0,89 Log N0/N",–,–,"0,70",–
KKVVFWVKFk-NH2 [BP442],"1,09 Log N0/N",–,Low (key: Very High: very high bactericidal activity (>2.5 log); High: high bactericidal activity (between 2.0 and 2.5 log); Moderate: a moderate activity (between 1.5 and 2.0 log); Low: low active (<1.5 log)),"0,76",–
KKlFKKILKYL-NH2 [BP144],"0,68 Log N0/N",–,–,"1,07",–
KkLFKKILKYL-NH2 [BP145],"1,08 Log N0/N",–,–,"0,76",–
"RKVRGPP-NH2 [Lf(28-34), RKVRGPP-NH2, reference compound]",–,0,–,–,Hemolytic activity (%) (horse erythrocytes): 1%
c(LLKKKWKKLQ) (cyclic) [BPC098W],"0,78 Log N0/N",–,Low (key: Very High: very high bactericidal activity (>2.5 log); High: high bactericidal activity (between 2.0 and 2.5 log); Moderate: a moderate activity (between 1.5 and 2.0 log); Low: low active (<1.5 log)),"0,83",–
